Experiments:
[1] = tested on: MCF-7 (breast cancer); assay: cells; details: for IC50 (50% cell growth inhibition concentration) / LC50 (50% cell destroying lethal concentration): MCF-7
Excerpt: (§1) The cancer cell growth inhibition test was primarily used to detect the effect of a candidate drug on cancer cell proliferation. The working principle involved therein is the ability of viable cells to shift alamarBlue (Biosource, USA) from its originally non-fluorescent oxidized state to a reduced form (fluorescent, red) having fluorescence via metabolic reaction. According to the fluorescent data result generated by the alamarBlue reagent thus obtained, the proliferation of the viable cells and cell activity can be quantified for detection.
(§2) In this experiment, the assay concentrations of the candidate drug were set to be 0.01, 0.1, 1, 10, and 100 μg/ml, and the following cell lines were used: 6 human cancer cells MCF-7 (breast cancer), HT-29 (colon cancer), HL-60 (leukemia), HepG2 (liver cancer), A549 (lung cancer), and U937 (lymphoma cancer), and a normal human umbilical venal epithelial cell (HUVEC).
(§3) In order to further understand the bioactivity of the products TSB-0 to TSB-8 of this invention when they are used in combination, mixture formulations TSB-9, TSB-10, TSB-11, TSB-12 and TSB-13 were prepared according to Table 4 below.

[2] = tested on: HT-29 (colon cancer); assay: cells; details: for IC50 (50% cell growth inhibition concentration) / LC50 (50% cell destroying lethal concentration): HT-29
Excerpt: as §1, §2, §3

[3] = tested on: HepG2 (liver cancer); assay: cells; details: for IC50 (50% cell growth inhibition concentration) / LC50 (50% cell destroying lethal concentration): HepG2
Excerpt: as §1, §2, §3

[4] = tested on: A549 (lung cancer); assay: cells; details: for IC50 (50% cell growth inhibition concentration) / LC50 (50% cell destroying lethal concentration): A549
Excerpt: as §1, §2, §3

[5] = tested on: HL-60 (leukemia); assay: cells; details: for IC50 (50% cell growth inhibition concentration) / LC50 (50% cell destroying lethal concentration): HL-60
Excerpt: as §1, §2, §3

[6] = tested on: U937 (lymphoma cancer); assay: cells; details: for IC50 (50% cell growth inhibition concentration) / LC50 (50% cell destroying lethal concentration): U937
Excerpt: as §1, §2, §3

[7] = tested on: normal human umbilical venal epithelial cell (HUVEC)
Excerpt: as §1, §2, §3

[8] = body weights of tumor-bearing test animals; type: in vivo, mice; details: 2 mg/kg × 5
Description: Mixture formulation TSB-9 was further subjected to an animal test, in which female mice (6–8 weeks old, weighing 20–22 grams) originally from C.B-17/Icr background and having Severe Combined Immune Deficiency (SCID) were used.
Human breast cancer cells MCF-7 (ATCC HTB-22) (1×10^7 cells/0.2 ml) were implanted subcutaneously into the dorsal side of the mice, and 50 μg/mouse of estradiol benzoate (Sigma, USA) was injected subcutaneously into the mice weekly as supplement for a total of 4 weeks. When the tumor growth reached ≧5 mm in diameter (that very day was denoted as day 1), tumor-bearing nude mice were randomly divided into 4 groups (6 mice in each group).
Mixture formulation TSB-9 was dissolved in 10% DMSO, and was administered orally to the mice every day at two dosages 40 mg/kg and 80 mg/kg, respectively, for a total of 21 consecutive days. […] This treatment group served as a positive control.
Measurements were taken once every 4 days during the experiment periods, and were recorded.

[9] = tested on: tumor/cancer cells; assay: in vitro anti-cancer tests, overall statements; type: cell-based, human; details: summary of in vitro results

Row | Compound | IC50 (50% cell growth inhibition concentration) [1] [µg/mL] | LC50 (50% cell destroying lethal concentration) [1] [µg/mL] | IC50 (50% cell growth inhibition concentration) [2] [µg/mL] | LC50 (50% cell destroying lethal concentration) [2] [µg/mL] | IC50 (50% cell growth inhibition concentration) [3] [µg/mL] | LC50 (50% cell destroying lethal concentration) [3] [µg/mL] | IC50 (50% cell growth inhibition concentration) [4] [µg/mL] | LC50 (50% cell destroying lethal concentration) [4] [µg/mL] | IC50 (50% cell growth inhibition concentration) [5] [µg/mL] | LC50 (50% cell destroying lethal concentration) [5] [µg/mL] | IC50 (50% cell growth inhibition concentration) [6] [µg/mL] | LC50 (50% cell destroying lethal concentration) [6] [µg/mL] | IC50 (50% cell growth inhibition concentration) [7] [µg/mL] | LC50 (50% cell destroying lethal concentration) [7] [µg/mL] | further results
1 | CC(C)=CCc1c2c(c(O)c3c1OC14C(=CC5CC1C(C)(C)OC4(C/C=C(\C)CO)C5=O)C3=O)C=CC(C)(C)O2 (centres unmarked) [TSB-6, isomorellinol] | 0.90 | 5.8 | 5.2 | 8.5 | 1.2 | 3.0 | 2.0 | 9.6 | 1.4 | 6.2 | 1.3 | 3.8 | 1.5 | 9.3 | –
2 | CO[C@@]12[C@H](COC(N)=O)C3=C(C(=O)C(C)=C(N)C3=O)N1C[C@@H]1N[C@@H]12 [mitomycin] | – | – | – | – | – | – | – | – | – | – | – | – | – | – | Weight (g) (mean ± SEM) ([8]; Day 1): 22.5 ± 0.6 g; Weight (g) (mean ± SEM) ([8]; Day 5): 20.8 ± 0.3 g; Weight (g) (mean ± SEM) ([8]; Day 9): 19.3 ± 0.4 g; Weight (g) (mean ± SEM) ([8]; Day 13): 19.2 ± 0.3 g; Weight (g) (mean ± SEM) ([8]; Day 17): 18.5 ± 0.2 g; Weight (g) (mean ± SEM) ([8]; Day 21): 17.5 ± 0.2 g; Weight (g) (mean ± SEM) ([8]; Day 25): 16.7 ± 0.2 g; Weight (g) (mean ± SEM) ([8]; Day 29): 16.7 ± 0.4 g
3 | CC(C)=CCc1c2c(c(O)c3c1OC14C(=CC5CC1C(C)(C)OC4(C/C=C(\C)C(=O)O)C5=O)C3=O)C=CC(C)(C)O2 (centres unmarked) [TSB-2, isomorellic acid] | 9.0 | 24 | 6.9 | 12 | 6.4 | 33 | 1.3 | 4.6 | 2.3 | 43 | 1.6 | 6.1 | 1.7 | 22 | –
4 | C=C(C)[C@@H]1CC[C@]2(CO)CC[C@]3(C)[C@H](CC[C@@H]4[C@@]5(C)CC[C@H](O)C(C)(C)[C@@H]5CC[C@]43C)[C@@H]12 [TSB-0, betulin] | – | – | – | – | – | – | – | – | – | – | – | – | – | – | effect of inhibiting tumor/cancer cell growth (in words) [9]: may not be as effective as products TSB-2 to TSB-8
5 | CC(C)=CCc1c2c(c(O)c3c1O[C@]14C(=C[C@@H]5C[C@H]1C(C)(C)O[C@@]4(C/C=C(/C)C(=O)O)C5=O)C3=O)C=CC(C)(C)O2 [TSB-7, morellic acid] | 0.98 | 6.2 | 2.8 | 7.2 | 1.7 | 3.9 | 0.76 | 3.4 | 1.2 | 5.6 | 1.6 | 4.8 | 0.88 | 4.8 | –
6 | CC(C)=CCC[C@]1(C)C=Cc2c(O)c3c(c(CC=C(C)C)c2O1)O[C@]12C(=C[C@@H]4C[C@H]1C(C)(C)O[C@@]2(C/C=C(/C)C(=O)O)C4=O)C3=O [TSB-5, gambogic acid] | 0.83 | 2.7 | 4.5 | 7.1 | 0.83 | 2.7 | 0.8 | 2.9 | 0.50 | 5.2 | 0.65 | 3.1 | 0.87 | 3.6 | –
7 | CC(C)=CCc1c2c(c(O)c3c1O[C@@]14C(=C[C@H]5CC1C(C)(C)O[C@]4(CC=C(C)C)C5=O)C3=O)C=CC(C)(C)O2 [TSB-8, desoxymorellin] | 5.3 | 83 | 6.7 | 69 | 3.9 | 31 | 4.8 | 56 | 6.5 | >100 | 6.2 | >100 | 2.8 | 40 | –
8 | CC(C)=CCC[C@]1(C)C=Cc2c(O)c3c(c(CC=C(C)C)c2O1)O[C@]12C(=C[C@@H]4C[C@H]1C(C)(C)O[C@@]2(C/C=C(\C)C(=O)O)C4=O)C3=O [TSB-3, isogambogic acid] | 1.6 | 4.3 | 6.4 | 8.8 | 1.2 | 1.9 | 0.88 | 4.8 | 0.97 | 4.6 | 0.82 | 3.1 | 1.1 | 5.2 | –
9 | C=C(C)[C@@H]1CC[C@]2(C(=O)O)CC[C@]3(C)[C@H](CC[C@@H]4[C@@]5(C)CC[C@H](O)C(C)(C)[C@@H]5CC[C@]43C)[C@@H]12 [TSB-1, betulinic acid] | – | – | – | – | – | – | – | – | – | – | – | – | – | – | effect of inhibiting tumor/cancer cell growth (in words) [9]: may not be as effective as products TSB-2 to TSB-8
10 | CC(C)=CCc1c(O)cc(O)c2c(=O)c3cc4c(c(O)c3oc12)OC(C)(C)C=C4 [TSB-4, 7,9,12-trihydroxy-2,2-dimethyl-10-(3-methyl-but-2-enyl)-2H-pyrano[3,2-b]xanthen-6-one] | – | – | – | – | – | – | – | – | – | – | – | – | – | 21 | CC50 ([1]; Homo sapiens, MCF7, read-out: LC50 (50% cell destroying lethal concentration)): 40 µg/mL; CC50 ([2]; Homo sapiens, HT-29, read-out: LC50 (50% cell destroying lethal concentration)): 59 µg/mL; CC50 ([3]; Homo sapiens, HepG2, read-out: LC50 (50% cell destroying lethal concentration)): 24 µg/mL; CC50 ([4]; Homo sapiens, A549, read-out: LC50 (50% cell destroying lethal concentration)): 21 µg/mL; CC50 ([5]; Homo sapiens, HL-60, read-out: LC50 (50% cell destroying lethal concentration)): 42 µg/mL; CC50 ([6]; Homo sapiens, U-937, read-out: LC50 (50% cell destroying lethal concentration)): 28 µg/mL
